Earlier results, collected in US6761903B2, “Clear oil-containing pharmaceutical compositions containing a therapeutic agent” (Lipocine, Inc., priority 1999, dated 2004).
Where two headings read alike, the source gives them in different places.

[1] = water having a pH at about 7 and below

SMILES	solubility in water [1]	solubility in water
C[C@H](CCC(=O)O)[C@H]1CC[C@H]2[C@@H]3[C@H](O)C[C@@H]4C[C@H](O)CC[C@]4(C)[C@H]3CC[C@]12C [CDCA, chenodeoxycholic acid]	practically insoluble	
C[C@H](CCC(=O)O)[C@H]1CC[C@H]2[C@@H]3[C@@H](O)C[C@@H]4C[C@H](O)CC[C@]4(C)[C@H]3CC[C@]12C [UDCA, ursodeoxycholic acid]	practically insoluble	
CCCCCCCC/C=C\CCCCCCCC(=O)OCC(O)CO (stereo not drawn) [glycerol monooleate]		practically water insoluble
